In patent publication US12295970B2, “Imidazoquinoline compounds and prodrugs thereof” (UNIVERSITY OF KANSAS, priority 2019, dated 2025):

What was measured:
[1] = In vitro release kinetics (dialysis method); type: physicochemical
Procedure: Solutions (1 mL) of free R848 in DMSO, R848/HA-Toco in water, R848-Toco in DMSO, and R848-Toco/HA-Toco in water, with a concentration of 1 mg/mL on R848 basis were dialyzed using SnakeSkin® dialysis tubing (MWCO […]) against 30 mL of phosphate buffered saline release medium (PBS, 10 mM sodium phosphate, 137 mM NaCl, pH 7.4) with 0.5% (w/v) polysorbate 80 at 37° C. At predetermined time points, 1 mL aliquots of release medium were sampled and replaced with an equal volume of fresh medium. The samples were kept frozen (−20° C.) until HPLC analysis.
Results: The in vitro release profiles of R848 and R848-Toco from the HA-Toco were studied using a dialysis method. […] The release of parent R848 formulated with HA-Toco was tested in PBS media, with free R848 dissolved in DMSO as a control. Similar release kinetics were observed whether R848 was formulated with HA-Toco or without ([…]), and in both conditions nearly 100% of the agonist was released over 24 h (FIG. 4A).

Hydrolysis of R848-Toco = type: physicochemical
Procedure: For hydrolysis, R848-Toco (0.1 mg) was dissolved in 1 mL of DMSO, and the solution was added into 9 mL of hydrolysis media (PBS or 0.5% (w/v) polysorbate 80/PBS). The solution was then rapidly mixed and filtered using a syringe filter (0.22 μm×13 mm, nylon). The filtrate was then incubated at 37° C. under agitation (250 rpm). At predetermined time points, 50 μL of the solution was sampled and analyzed immediately by HPLC.

canine PBMCs = experiment: In vitro cytokine secretion assay in canine PBMCs (Example 3); type: cell-based; conditions: 15 hours, ELISA
Source text: As a TLR7/8 agonist, R848 binds to endosomal TLR7 and 8 receptors located on antigen presenting cells (APCs). The activation of APCs produces pro-inflammatory cytokines including TNF-α, type I IFN and IL-12. These cytokines, together with stimulated APCs that take up tumor antigens, enhance the activation of anti-tumor Th-1 immune responses that involve both CD4^+ T helper cells and CD8^+ cytotoxic T cells.^16 To evaluate the Th-1 associated cytokine production in vitro, isolated canine PBMCs were treated with R848, formulated or unformulated R848-Toco, and the secretion of TNF-α and IL-12 were measured by ELISA as markers of generalized inflammatory response. Canines were chosen as a model over mice because of the greater genetic similarity to humans and more similar immune systems.^46 Peripheral blood from healthy canine donors of 7-10 years age (similar to the age of typical canines with cancer^14) was obtained with appropriate informed consent of the owner. Blood (8 mL per tube) was drawn via sterile venipuncture into a BD Vacutainer cell preparation tube containing sodium heparin (BD Biosciences). PBMCs were isolated within one hour following procurement by density gradient centrifugation according to the manufacturer protocol and resuspended to 3×10^6 cells/mL in sterile RPMI 1640 medium with L-glutamine (Gibco) supplemented with 100 IU/mL penicillin, 100 μg/mL streptomycin (Corning) and 10% (v/v) heat-inactivated Fetalgro (RMBIO). Corning 3917, 96-well tissue culture treated plates were seeded with the PBMC suspension (180 μL/well), 20 μL of the serially diluted R848 samples were added in triplicate and HA-Toco vehicle in duplicate to yield the desired concentrations in a 1% (v/v) DMSO cell suspension. […] Sample cytokine concentrations were determined by interpolation of a four-parameter logistic curve of the recombinant standards using GraphPad Prism 6. […] Cytokine secretion levels were measured by ELISA (Duoset, R&D Systems, Minneapolis, MN, USA) according to the manufacturer protocol.

human TLR7 (hTLR7) = molecular target: T1, human TLR7 (hTLR7) (Homo sapiens, UniProt Q9NYK1); experiment: In vitro TLR7 activity assay (HEK-Blue hTLR7, QUANTI-Blue, Example 3); type: cell-based; conditions: 16 h incubation; Null 1-k subtracted
T1 construct: host or cells: HEK-293 (HEK-Blue hTLR7)
T1 sequence (Q9NYK1 27-1049): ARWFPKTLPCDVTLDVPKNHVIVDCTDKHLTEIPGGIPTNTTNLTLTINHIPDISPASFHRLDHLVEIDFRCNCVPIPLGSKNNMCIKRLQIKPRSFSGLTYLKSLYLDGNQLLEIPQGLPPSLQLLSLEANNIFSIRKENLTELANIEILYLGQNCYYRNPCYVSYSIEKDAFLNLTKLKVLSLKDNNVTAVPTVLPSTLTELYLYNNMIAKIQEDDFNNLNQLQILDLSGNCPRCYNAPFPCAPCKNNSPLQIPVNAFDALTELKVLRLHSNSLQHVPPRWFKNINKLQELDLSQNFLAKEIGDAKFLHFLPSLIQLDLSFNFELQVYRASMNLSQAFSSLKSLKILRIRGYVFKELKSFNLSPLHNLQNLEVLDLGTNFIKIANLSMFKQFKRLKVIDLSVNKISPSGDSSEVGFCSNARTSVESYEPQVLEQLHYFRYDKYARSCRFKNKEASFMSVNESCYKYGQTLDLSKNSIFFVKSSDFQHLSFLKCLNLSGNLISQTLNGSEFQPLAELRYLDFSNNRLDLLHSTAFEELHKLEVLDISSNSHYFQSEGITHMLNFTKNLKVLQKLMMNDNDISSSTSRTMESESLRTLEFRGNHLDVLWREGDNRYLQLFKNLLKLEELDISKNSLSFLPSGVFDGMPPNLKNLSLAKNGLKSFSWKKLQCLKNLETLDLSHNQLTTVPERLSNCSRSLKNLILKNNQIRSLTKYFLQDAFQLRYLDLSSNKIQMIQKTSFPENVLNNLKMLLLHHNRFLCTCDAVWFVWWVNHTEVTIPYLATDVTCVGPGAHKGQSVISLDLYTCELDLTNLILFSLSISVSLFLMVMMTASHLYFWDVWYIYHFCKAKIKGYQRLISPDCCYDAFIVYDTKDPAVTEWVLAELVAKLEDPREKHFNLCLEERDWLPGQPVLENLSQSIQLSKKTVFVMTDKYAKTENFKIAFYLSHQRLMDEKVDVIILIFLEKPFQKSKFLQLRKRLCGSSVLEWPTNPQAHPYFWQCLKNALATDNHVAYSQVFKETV
Procedure: TLR agonist activity was measured in a dose-response study using reporter cell lines expressing the human TLR7 (hTLR7). […] The hTLR7 activity of R848-Toco, the formulation and its components were assessed using HEK-293 cells co-transfected with the hTLR7 gene and an inducible SEAP reporter gene along with the corresponding null control line (HEK-Blue™ hTLR7 and Null-1k cells, Invivogen). Cells were maintained in DMEM media with selective antibiotics according to the manufacturer protocol.^26 HEK-Blue™ cells were seeded into 96 well plates at a density of 220,000 cells/mL with 180 μL/well of culture medium. Stock solutions in DMSO were first serially diluted to seven concentrations (DMSO solutions further diluted into H2O). Each well was stimulated with 20 μL of agonists or agonist-free controls (equivalent concentration of HA-Toco, D-α-Tocopherol succinate, PBS or […] DMSO) at the determined final concentrations in 5 replicates. After 16 h of incubation at 37° C. in a 5% CO2 atmosphere, 20 μL of the supernatant from each well was sampled and spiked into 180 μL of QUANTI-Blue™ solution followed by incubation for 1 h at 37° C. Relative hTLR7 activity was then analyzed by UV-Vis at 637 nm using a microplate UV reader (SpectraMAX GeminiXS, Molecular Devices, San Jose, CA, USA). For each compound and concentration, a corresponding sample was applied to the HEK-Blue™ Null-1k cell line. The TLR7 agonist activity was determined after averaging across hTLR7 replications and subtracting the averaged Null response.
Activation levels were calculated as the difference between the average readings of the hTLR7 cell line and the Null 1-k cell line, to account for non-hTLR7 related induction of NF-κB. […] Therefore, this study confirmed that R848-Toco, formulated with HA-Toco as an emulsion, maintained its TLR agonist activity. […]

[2] = Solubility in water (in words); type: physicochemical
mast cell tumors = conditions: 86 canine patients (7 complete response and 25 partial response); cited from earlier work

Row | Compound | released over the first 24 h ([1]; 0.5% w/v polysorbate 80 solution of PBS) | release profile (in words) ([1]; PBS, pH 7.4) | hydrolyzed products observed by HPLC (Hydrolysis of R848-Toco; hydrolysis sample at 8 h) | R848-Toco hydrolyzed to R848 (Hydrolysis of R848-Toco; initial 8 h, 37° C.) | IL-12 levels (canine PBMCs) | hTLR7 activation (NF-κB, in words) (human TLR7 (hTLR7)) | solubility in water [2] | response rate (mast cell tumors)
1 | CCOCc1nc2c(N)nc3ccccc3c2n1CC(C)(C)OC(=O)CCC(=O)Oc1c(C)c(C)c2c(c1C)CC[C@@](C)(CCC[C@H](C)CCC[C@H](C)CCCC(C)C)O2 [Compound R848-Toco] | 76% | burst release within the first half hour | R848, which was the only observed hydrolyzed product | 72% | lower expression | much less active | poorly soluble in water | 
2 | Cc1[nH]c(/C=C2\C(=O)Nc3ccc(F)cc32)c(C)c1C(=O)NCCN1CCCC1.O=P(O)(O)O [toceranib phosphate] |  |  |  |  |  |  |  | 37.2%
